Measured values taken from PubChem BioAssay (NCI).
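Test compounds were applied to cells in 96-well plates for 48 hours at 5 doses. TGI: concentration producing complete growth inhibition.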

What was measured:
Test in all cases: NCI tumour cell line growth inhibition, 48 h
SF-295 CNS = test system: SF-295 CNS
NCI-H23 lung = test system: NCI-H23 lung
MDA-MB-231 breast = test system: MDA-MB-231 breast
ACHN renal = test system: ACHN renal
MALME-3M melanoma = test system: MALME-3M melanoma
MCF7 breast = test system: MCF7 breast
LOX IMVI melanoma = test system: LOX IMVI melanoma
OVCAR-4 ovarian = test system: OVCAR-4 ovarian
NCI-H460 lung = test system: NCI-H460 lung
HL-60(TB) leukemia = test system: HL-60(TB) leukemia
SNB-75 CNS = test system: SNB-75 CNS
MDA-MB-435 = test system: MDA-MB-435
UO-31 renal = test system: UO-31 renal
DU-145 prostate = test system: DU-145 prostate
SK-OV-3 ovarian = test system: SK-OV-3 ovarian
SF-539 CNS = test system: SF-539 CNS
SK-MEL-5 melanoma = test system: SK-MEL-5 melanoma
MOLT-4 leukemia = test system: MOLT-4 leukemia

Row | SMILES | TGI (SF-295 CNS) | TGI (NCI-H23 lung) | TGI (MDA-MB-231 breast) | TGI (ACHN renal) | TGI (MALME-3M melanoma) | TGI (MCF7 breast) | TGI (LOX IMVI melanoma) | TGI (OVCAR-4 ovarian) | TGI (NCI-H460 lung) | TGI (HL-60(TB) leukemia) | TGI (SNB-75 CNS) | TGI (MDA-MB-435) | TGI (UO-31 renal) | TGI (DU-145 prostate) | TGI (SK-OV-3 ovarian) | TGI (SF-539 CNS) | TGI (SK-MEL-5 melanoma) | TGI (MOLT-4 leukemia)
1 | Cc1ccc(-c2cn3c(nc4ccccc43)c(C)n2)cc1 | > 100 µM | > 100 µM | > 100 µM | > 100 µM | > 67.8 µM | > 100 µM | > 100 µM | > 100 µM | > 100 µM | > 100 µM | > 87.6 µM | 97 µM | > 30.1 µM | > 100 µM | 41.5 µM | > 100 µM | 40.3 µM | > 100 µM
2 | COc1cc(OC)cc(N(C)Cc2cnc3nc(N)nc(N)c3c2C)c1 | > 100 µM | > 100 µM | > 100 µM | > 100 µM | > 100 µM | > 100 µM | > 100 µM | > 100 µM | > 100 µM | > 100 µM | > 100 µM | > 100 µM | > 100 µM | > 100 µM | > 100 µM | 4.96 µM | > 100 µM | > 100 µM
3 | C=CC(C)(C)c1cc([C@@H]2COc3cc(O)ccc3C2=O)c(O)c(OC)c1OC | 27.5 µM | 27.2 µM | 37.9 µM | 33.7 µM | 43.2 µM | 31.8 µM | 37.9 µM | 19.7 µM | 41.7 µM | 44.2 µM | 25.6 µM | 21.5 µM | 28.3 µM | 30.3 µM | 36.7 µM | 44 µM | 22.7 µM | > 100 µM
4 | CN(C)CCCNc1ccc2nnn3c4ccc([N+](=O)[O-])cc4c(=O)c1c23 | 7.44 µM | 8.61 µM | 2.95 µM | 5.92 µM | 14.5 µM | 8.08 µM | 2.22 µM | 3.92 µM | 1.57 µM | 11.3 µM | 8.55 µM | 12.3 µM | 9.5 µM | 12.1 µM | 16 µM | 14.2 µM | 5.97 µM | 5.63 µM
5 | CC(C)Oc1c(O)c2c3c(oc(=O)n3C=CC2c2ccccc2F)c1OC(C)C (stereo not given) | 78.1 µM | > 100 µM | > 100 µM | > 100 µM | > 100 µM | > 100 µM | 33.1 µM | > 100 µM | > 100 µM | 44.3 µM | > 100 µM | 70 µM | > 100 µM | > 100 µM | > 100 µM | 52.6 µM | 34.2 µM | 59.3 µM
